Entries after “also recorded” stand apart in the source; their conditions may differ. Ends that are not written are not given here.
How the values were obtained:
S. epidermidis [1] = assay: Kill or inhibit growth/proliferation; morphology, biofilm and growth disruption (Tables 5, 6); format: cell-based, Staphylococcus epidermidis; set-up: key: A: Peptide aggregates; B: Less hyphal formation; Clumps; Diffuse clumps and small polyps; F: Diffuse growth; H: Thin; I: Growth inhibition; Microcolony formation; Rippled; Small polyps; Thick; W: Halo formation on top, microlonies on bottom; note: test concentration or dose not given here
S. pneumoniae [2] = assay: as above; format: cell-based, Streptococcus pneumoniae; set-up: key: A: Peptide aggregates; B: Less hyphal formation; Clumps; Diffuse clumps and small polyps; F: Diffuse growth; H: Thin; I: Growth inhibition; Microcolony formation; Rippled; Small polyps; Thick; W: Halo formation on top, microlonies on bottom
MRSA [3] = assay: as above; format: cell-based, Methicillin-resistant Staphylococcus aureus; set-up: key: A: Peptide aggregates; B: Less hyphal formation; Clumps; Diffuse clumps and small polyps; F: Diffuse growth; H: Thin; I: Growth inhibition; Microcolony formation; Rippled; Small polyps; Thick; W: Halo formation on top, microlonies on bottom
S. epidermidis [4] = format: cell-based, Staphylococcus epidermidis; conditions: S. epidermidis
Method: (§1) Typically, the in vitro antimicrobial activity of antimicrobial agents is tested using standard NCCLS bacterial inhibition assays, or MIC tests (see, National Committee on Clinical Laboratory Standards “Performance Standards for Antimicrobial Susceptibility Testing,” NCCLS Document M100-S5 Vol. 14, No. 16, December 1994; “Methods for dilution antimicrobial susceptibility test for bacteria that grow aerobically-Third Edition,” Approved Standard M7-A3, National Committee for Clinical Standards, Villanova, Pa.).
(§2) Briefly, ˜1×10^5 cfu/mL bacteria were diluted in TH (S. mutans), or Mueller-Hinton (MH) broth (all other organisms) and distributed to 96-well plates. Serially-diluted (2-fold) peptides were then added and the plates incubated at 37° C. for 18-24 h. […] All experiments were conducted 10 times.

microorganisms = assay: Peptides having multiple activities (targeting/binding, antimicrobial, growth or phenotype altering)
Excerpt: In certain embodiments, peptides described herein can have multiple activities. Thus for example, a peptide can have both binding/targeting activity and antimicrobial activity. Such peptides can be used, e.g., in a chimeric construct, for any or all of these properties. Thus, for example, a peptide designated “B” in Table 8 can be used as a targeting peptide. If it is also designated G or M it can also be used for antimicrobial activity.

S. mutans = assay: Kill or inhibit growth/proliferation; morphology, biofilm and growth disruption (Tables 5, 6); format: cell-based, Streptococcus mutans; set-up: key: A: Peptide aggregates; B: Less hyphal formation; Clumps; Diffuse clumps and small polyps; F: Diffuse growth; H: Thin; I: Growth inhibition; Microcolony formation; Rippled; Small polyps; Thick; W: Halo formation on top, microlonies on bottom; note: test concentration or dose not given here
MRSA [5] = assay: MIC (broth microdilution); format: cell-based, Methicillin-resistant Staphylococcus aureus
Method: as §1, §2

[6] = system: microorganisms (e.g., bacteria, yeasts, fungi); assay: Targeting peptide binding to target microorganisms (Table 3); conditions: preferably 1x PBS; for Target(s): microorganism(s) the targeting peptide binds; for Target(s) (microorganisms bound by the targeting peptide): peptide binding in aqueous buffers varied by peptide solubility
S. pneumoniae [7] = assay: MIC (broth microdilution); format: cell-based, Streptococcus pneumoniae
Method: as §1, §2

A. niger = assay: MIC (broth microdilution); format: cell-based, Aspergillus niger
Method: as §1, §2

P. gingivalis = assay: Kill or inhibit growth/proliferation; morphology, biofilm and growth disruption (Tables 5, 6); format: cell-based, Porphyromonas gingivalis; set-up: key: A: Peptide aggregates; B: Less hyphal formation; Clumps; Diffuse clumps and small polyps; F: Diffuse growth; H: Thin; I: Growth inhibition; Microcolony formation; Rippled; Small polyps; Thick; W: Halo formation on top, microlonies on bottom; note: test concentration or dose not given here
F. nucleatum = assay: as above; format: cell-based, Fusobacterium nucleatum; set-up: key: A: Peptide aggregates; B: Less hyphal formation; Clumps; Diffuse clumps and small polyps; F: Diffuse growth; H: Thin; I: Growth inhibition; Microcolony formation; Rippled; Small polyps; Thick; W: Halo formation on top, microlonies on bottom
P. aeruginosa = assay: as above; format: cell-based, Pseudomonas aeruginosa; set-up: key: A: Peptide aggregates; B: Less hyphal formation; Clumps; Diffuse clumps and small polyps; F: Diffuse growth; H: Thin; I: Growth inhibition; Microcolony formation; Rippled; Small polyps; Thick; W: Halo formation on top, microlonies on bottom; note: test concentration or dose not given here
C. jeikeium = assay: as above; format: cell-based, Corynebacterium jeikeium; set-up: key: A: Peptide aggregates; B: Less hyphal formation; Clumps; Diffuse clumps and small polyps; F: Diffuse growth; H: Thin; I: Growth inhibition; Microcolony formation; Rippled; Small polyps; Thick; W: Halo formation on top, microlonies on bottom; note: test concentration or dose not given here
E. faecalis = assay: as above; format: cell-based, Enterococcus faecalis; set-up: key: A: Peptide aggregates; B: Less hyphal formation; Clumps; Diffuse clumps and small polyps; F: Diffuse growth; H: Thin; I: Growth inhibition; Microcolony formation; Rippled; Small polyps; Thick; W: Halo formation on top, microlonies on bottom; note: test concentration or dose not given here
B. subtilis [8] = assay: MIC (broth microdilution); format: cell-based, Bacillus subtilis
Method: as §1, §2

C. albicans = assay: Kill or inhibit growth/proliferation; morphology, biofilm and growth disruption (Tables 5, 6); format: cell-based, Candida albicans; set-up: key: A: Peptide aggregates; B: Less hyphal formation; Clumps; Diffuse clumps and small polyps; F: Diffuse growth; H: Thin; I: Growth inhibition; Microcolony formation; Rippled; Small polyps; Thick; W: Halo formation on top, microlonies on bottom; note: test concentration or dose not given here
B. subtilis [9] = assay: as above; format: cell-based, Bacillus subtilis; set-up: key: A: Peptide aggregates; B: Less hyphal formation; Clumps; Diffuse clumps and small polyps; F: Diffuse growth; H: Thin; I: Growth inhibition; Microcolony formation; Rippled; Small polyps; Thick; W: Halo formation on top, microlonies on bottom
[10] = peptide binding conducted in aqueous buffers varied by peptide solubility
Throughout, for Organism, effect (morphology, biofilm and growth disruption): test concentration or dose not given here.
Throughout, for Organism, effect: test concentration or dose not given here.

| Substance | Activities (microorganisms) | Organism, effect (morphology, biofilm and growth disruption) (P. gingivalis) | Target(s) (microorganisms bound by the targeting peptide) [6] | Organism, effect (morphology, biofilm and growth disruption) (F. nucleatum) | Organism, effect (morphology, biofilm and growth disruption) (S. mutans) | other results |
| --- | --- | --- | --- | --- | --- | --- |
| KFQGEFTNIGQSYIVSASHMSTSLNTGK [PF-583] | G B M | – | – | – | – | Organism, effect (S. epidermidis [1]): S. epidermidis (I); Organism, effect (S. pneumoniae [2]): S. pneumoniae (D); Organism, effect (MRSA [3]): MRSA (I); MIC (S. epidermidis [4]): S. epidermidis, 50 μM; Organism, effect (S. mutans): S. mutans (F); MIC (MRSA [5]): MRSA , 50 μM |
| LSEMERRRLRKRA-NH2 [PF-529] | G B M | – | – | – | – | Organism, effect (S. pneumoniae [2]): S. pneumoniae (H); Target(s) [6, 10]: S. epidermidis and E. coli and C. albicans and MRSA and S. pneumoniae and E. faecalis and C. jeikeium; MIC (S. pneumoniae [7]): S. pneumoniae, 50 μM; MIC (A. niger): A. niger, 50 μM |
| NTNDLLQAFELMGLGMAGVFIVLGILYIVAELLIKIFPVNN [PF-C194] | G B | P. gingivalis (T) | A. naeslundii; also recorded: F. nucleatum; also recorded: P. gingivalis; also recorded: S. mutans; also recorded: T. denticola | F. nucleatum (T) | S. mutans (F) | – |
| NYAVVSHT [PF-209] | G B M | – | – | – | – | Organism, effect (S. epidermidis [1]): S. epidermidis (C); Organism, effect (MRSA [3]): MRSA (I); Target(s) ([6]; binding in aqueous buffers depending on peptide solubility): C. albicans; also recorded: C. jeikeium; also recorded: C. jejuni; Organism, effect (P. aeruginosa): P. aeruginosa (H); MIC (MRSA [5]): MRSA , 50 μM |
| PF-C052: peptide having multiple activities (SRFRNGV; Peptide with targeting and/or antimicrobial activity) | G B | P. gingivalis (H) | A. naeslundii; also recorded: F. nucleatum; also recorded: S. mutans | – | – | – |
| PF-C075: peptide having multiple activities (KALVISVFAIVFSIIFVKFFYWRDKK; Peptide with targeting and/or antimicrobial activity) | G B | P. gingivalis (R) | A. naeslundii; also recorded: F. nucleatum; also recorded: P. gingivalis; also recorded: S. mutans; also recorded: T. denticola | F. nucleatum (T) | S. mutans (F) | – |
| PF-C084: peptide having multiple activities (FFSVIFLFGLNYLICNSPLFNILR; Peptide with targeting and/or antimicrobial activity) | G B | P. gingivalis (R) | A. naeslundii; also recorded: F. nucleatum; also recorded: P. gingivalis; also recorded: S. mutans | F. nucleatum (T) | S. mutans (F) | – |
| PF-C088: peptide having multiple activities (DIANNILNSVSERLIIA; Peptide with targeting and/or antimicrobial activity) | G B | P. gingivalis (R) | A. naeslundii; also recorded: F. nucleatum; also recorded: P. gingivalis; also recorded: S. mutans; also recorded: T. denticola | F. nucleatum (H) | S. mutans (I) | – |
| PF-C089 (MPKRHYYKLEAKALQFGLPFAYSPIQLLK; Peptide with targeting and/or antimicrobial activity) | – | P. gingivalis (R) | – | – | – | – |
| PF-C136: peptide having multiple activities (LILSYQASVYPLFAYLCQQKDY; Peptide with targeting and/or antimicrobial activity) | G B | P. gingivalis (R) | A. naeslundii; also recorded: F. nucleatum; also recorded: P. gingivalis; also recorded: S. mutans; also recorded: T. denticola | F. nucleatum (C) | – | – |
| PF-C180: peptide having multiple activities (TVEELDKAFTWGAAAALAIGVIAINVGLAAGYCYNNNDVF; Peptide with targeting and/or antimicrobial activity) | G B | P. gingivalis (R) | F. nucleatum; also recorded: P. gingivalis; also recorded: S. mutans; also recorded: T. denticola | – | S. mutans (S) | – |
| PF-C293 (IIIILPKIYLVCKTV; Peptide with targeting and/or antimicrobial activity) | – | P. gingivalis (R) | – | F. nucleatum (T) | S. mutans (F) | – |
| RESKLIAMADMIRRRI-NH2 [PF-545] | G B M | – | – | – | – | Organism, effect (C. jeikeium): C. jeikeium (H); Organism, effect (E. faecalis): E. faecalis (H); MIC (B. subtilis [8]): B. subtilis, 25 μM; Organism, effect (C. albicans): C. albicans (B); Organism, effect (B. subtilis [9]): B. subtilis (I); Target(s) [6, 10]: S. epidermidis; also recorded: E. coli; also recorded: P. aeruginosa; also recorded: S. pneumoniae; also recorded: E. faecalis; also recorded: C. jeikeium; MIC (MRSA [5]): MRSA , 50 μM; MIC (A. niger): A. niger, 50 μM |
| SLQSQLGPCLHDQRH [PF-448] | G B M | – | – | – | – | Organism, effect (S. pneumoniae [2]): S. pneumoniae (I); Target(s) [6, 10]: S. epidermidis; also recorded: M. luteus; also recorded: P. mirabilis; also recorded: E. coli; also recorded: S. pneumoniae; also recorded: E. faecalis; also recorded: C. jeikeium; also recorded: C. jejuni; MIC (S. pneumoniae [7]): S. pneumoniae, 50 μM; MIC (A. niger): A. niger, 25 μM |

— patent US20110039762A1, “TARGETED ANTIMICROBIAL MOIETIES” (C3 JIAN, INC., priority 2009, published 2011)
